LogPow and chromatographic logP data for 5 compounds are collected here from US20200245660A1, “AGROCHEMICAL-FREE SIRAITIA GROSVENORII EXTRACT, AND METHOD FOR PREPARING SAME” (priority 2015, published 2020).

Read-outs that look alike come from different tables or passages of the source.

The conditions of data set [1]: cited from earlier work.
Data set [2] can be described thus: physchem. The format is physicochemical. As to conditions: LogPow. The procedure: These agrochemicals are each a compound having a distribution coefficient (LogPow) of 1.71 or more. Herein, the distribution coefficient of a target compound specifically means the 1-octanol/water distribution coefficient (LogPowow) thereof. When the target compound is added into two solvent phases (of 20 to 25° C.) of 1-octanol and water to make the two phases into an equilibrium state, the distribution coefficient more specifically means the concentration ratio of the compound between the two phases (1-octanol/water). The distribution coefficient may be gained by a flask method or an HPLC method. The distribution coefficient is a physicochemical index representing the hydrophobicity (solubility into lipid) of the compound. As the compound is higher in distribution coefficient, the compound is higher in hydrophobicity. It is known that as the compound is higher in hydrophobicity, the compound is higher in storability in a living body and is also stronger in toxicity. Thus, it can be stated that as the compound is higher in distribution coefficient, the compound is an agrochemical stronger in toxicity.
For reference, out of the six, about dimethomorph, tebuconazole, difenoconazole, metalaxyl, and metalaxyl M, the respective LogPow values are shown below. […]

Take `COCC(=O)N(c1c(C)cccc1C)C(C)C(=O)OC` (centres unmarked) [Metalaxyl, metalaxyl]: in data set [1] (25 °C, Flask method), the LogPow was 1.75.
On to `CC(C)(C)C(O)C(Oc1ccc(Cl)cc1)n1cncn1` (centres unmarked) [Triadimenol, triadimenol], for which, in data set [2], the chromatographic logP is roughly 2.96.
As for `CC1COC(Cn2cncn2)(c2ccc(Oc3ccc(Cl)cc3)cc2Cl)O1` (centres unmarked) [Difenoconazole, difenoconazole], the LogPow in data set [1] (25 °C, Flask method) is recorded as 4.4.
In the case of `COCC(=O)N(c1c(C)cccc1C)[C@H](C)C(=O)OC` [Metalaxyl M, metalaxyl M], the LogPow in data set [1] (25 °C, HPLC method) is given as 1.71.
Regarding `CC(C)(C)C(O)(CCc1ccc(Cl)cc1)Cn1cncn1` (centres unmarked) [Tebuconazole, tebuconazole], the LogPow in data set [1] (20 °C, Flask method) was 3.7.
